Tests used:
Type in all cases: biochemical
[1] = target: human JAK1 (a.a. 837-1142) (Homo sapiens, UniProt P23458); test: In vitro JAK kinase assay (HTRF, phosphorylation of a biotinylated peptide), JAK1; conditions: measured at 1 mM ATP
In short: (§1)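 N-terminal His-tagged catalytic domains, baculovirus-expressed in insect cells, phosphorylated a biotinylated peptide for 1 hr at room temperature. EDTA stop was followed by SA-APC and Eu-Py20 antibody for 40 minutes, with phosphopeptide read by HTRF.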

[2] = target: human JAK1 (a.a. 837-1142); test: as above; conditions: ratio of JAK2 IC50 to JAK1 IC50, measured at 1 mM ATP
In short: as §1

Jak2 (a.a. 828-1132) = Jak2 (a.a. 828-1132) (Homo sapiens (Human), UniProt O60674); test: In vitro JAK kinase assay (HTRF, phosphorylation of a biotinylated peptide), JAK2; conditions: measured at 1 mM ATP
Jak2 (a.a. 828-1132), sequence (O60674 828-1132): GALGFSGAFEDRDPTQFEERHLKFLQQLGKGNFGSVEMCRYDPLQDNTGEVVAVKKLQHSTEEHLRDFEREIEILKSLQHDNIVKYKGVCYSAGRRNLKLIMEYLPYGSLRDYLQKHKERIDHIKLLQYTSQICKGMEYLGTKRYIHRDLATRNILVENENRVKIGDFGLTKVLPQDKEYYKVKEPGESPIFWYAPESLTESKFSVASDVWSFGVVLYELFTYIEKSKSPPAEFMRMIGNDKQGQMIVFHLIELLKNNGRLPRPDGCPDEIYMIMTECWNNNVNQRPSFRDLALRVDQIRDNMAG
In short: as §1

| IC50 [1] [nM] | IC50 Ratio JAK2/JAK1 [2] | IC50 (Jak2 (a.a. 828-1132)) [nM] | SMILES |
| --- | --- | --- | --- |
| 5 to 20 | 2.7 | 10 to 50 | N#CCC1(n2ccc(-c3ncnc4[nH]ccc34)c2)CN(C2CCN(C(=O)c3cnc(C(F)(F)F)cn3)CC2)C1 [Example 347, [3-[3-(7H-Pyrrolo[2,3-d]pyrimidin-4-yl)-1H-pyrrol-1-yl]-1-(1-{[5-(trifluoromethyl)pyrazin-2-yl]carbonyl}piperidin-4-yl)azetidin-3-yl]acetonitrile] |
| ≤ 5 | 3.2 | 10 to 50 | CS(=O)(=O)N1CCC(N2CC(CC#N)(n3ccc(-c4ncnc5[nH]ccc45)c3)C2)CC1 [Example 348, {1-[1-(Methylsulfonyl)piperidin-4-yl]-3-[3-(7H-pyrrolo[2,3-d]pyrimidin-4-yl)-1H-pyrrol-1-yl]azetidin-3-yl}acetonitrile] |
| 5 to 20 | 15.0 | > 100 | N#CCC1(n2cc(-c3ccnc4[nH]ccc34)cn2)CN(C2CCN(C(=O)c3nc(C(F)(F)F)cs3)CC2)C1 [Example 350] |
| ≤ 5 | 3.8 | 10 to 50 | CS(=O)(=O)N1CCC(N2CC(CC#N)(n3cc(-c4ccnc5[nH]ccc45)cn3)C2)CC1 [Example 351, {1-[1-(Methylsulfonyl)piperidin-4-yl]-3-[4-(1H-pyrrolo[2,3-b]pyridin-4-yl)-1H-pyrazol-1-yl]azetidin-3-yl}acetonitrile] |
| ≤ 5 | 18.8 | 10 to 50 | N#CCC1(n2cc(-c3c(F)cnc4[nH]ccc34)cn2)CN(C2CCN(C(=O)c3cncc(C(F)(F)F)n3)CC2)C1 [Example 352, [3-[4-(5-Fluoro-1H-pyrrolo[2,3-b]pyridin-4-yl)-1H-pyrazol-1-yl]-1-(1-{[6-(trifluoromethyl)pyrazin-2-yl]carbonyl}piperidin-4-yl)azetidin-3-yl]acetonitrile] |
| 5 to 20 | 5.0 | 10 to 50 | N#CCC1(n2cc(-c3c(F)cnc4[nH]ccc34)cn2)CN(C2CCN(C(=O)c3ccnc(C(F)(F)F)n3)CC2)C1 [Example 353, [3-[4-(5-Fluoro-1H-pyrrolo[2,3-b]pyridin-4-yl)-1H-pyrazol-1-yl]-1-(1-{[2-(trifluoromethyl)pyrimidin-4-yl]carbonyl}piperidin-4-yl)azetidin-3-yl]acetonitrile] |
| 5 to 20 | 2.1 | 10 to 50 | N#CCC1(n2cc(-c3c(F)cnc4[nH]ccc34)cn2)CN(C2CCN(C(=O)c3cnc(C(F)(F)F)cn3)CC2)C1 [Example 354, [3-[4-(5-Fluoro-1H-pyrrolo[2,3-b]pyridin-4-yl)-1H-pyrazol-1-yl]-1-(1-{[5-(trifluoromethyl)pyrazin-2-yl]carbonyl}piperidin-4-yl)azetidin-3-yl]acetonitrile] |
| ≤ 5 | 3.1 | ≤ 10 | CS(=O)(=O)N1CCC(N2CC(CC#N)(n3cc(-c4c(F)cnc5[nH]ccc45)cn3)C2)CC1 [Example 355, {3-[4-(5-Fluoro-1H-pyrrolo[2,3-b]pyridin-4-yl)-1H-pyrazol-1-yl]-1-[1-(methylsulfonyl)piperidin-4-yl]azetidin-3-yl}acetonitrile] |

More lines, now with the values behind:

| SMILES | IC50 [1] [nM] | IC50 Ratio JAK2/JAK1 [2] | IC50 (Jak2 (a.a. 828-1132)) [nM] |
| --- | --- | --- | --- |
| N#CCC1(n2cc(-c3c(F)cnc4[nH]ccc34)cn2)CN(C2CCN(C(=O)Nc3ccncc3C(F)(F)F)CC2)C1 [Example 331, 4-{3-(cyanomethyl)-3-[4-(5-fluoro-1H-pyrrolo[2,3-b]pyridin-4-yl)-1H-pyrazol-1-yl]azetidin-1-yl}-N-[3-(trifluoromethyl)pyridin-4-yl]piperidine-1-carboxamide] | ≤ 5 | 10.8 | 10 to 50 |
| N#CCC1(n2cc(-c3c(C#N)cnc4[nH]ccc34)cn2)CN(C2CCN(C(=O)c3ccnc(C(F)(F)F)c3F)CC2)C1 [Example 332, 4-[1-(3-(Cyanomethyl)-1-{1-[3-fluoro-2-(trifluoromethyl)isonicotinoyl]piperidin-4-yl}azetidin-3-yl)-1H-pyrazol-4-yl]-1H-pyrrolo[2,3-b]pyridine-5-carbonitrile] | ≤ 5 | 19.3 | 50 to 100 |
| N#CCC1(n2cc(-c3c(C#N)cnc4[nH]ccc34)cn2)CN(C2CCN(C(=O)c3cc(F)cc(C#N)c3)CC2)C1 [Example 333, 4-{1-[1-[1-(3-cyano-5-fluorobenzoyl)piperidin-4-yl]-3-(cyanomethyl)azetidin-3-yl]-1H-pyrazol-4-yl}-1H-pyrrolo[2,3-b]pyridine-5-carbonitrile] | 5 to 20 | 8.8 | 50 to 100 |
| N#CCC1(n2cc(-c3c(C#N)cnc4[nH]ccc34)cn2)CN(C2CCN(C(=O)c3ccc(C#N)c(F)c3)CC2)C1 [Example 334, 4-{1-[1-[1-(4-cyano-3-fluorobenzoyl)piperidin-4-yl]-3-(cyanomethyl)azetidin-3-yl]-1H-pyrazol-4-yl}-1H-pyrrolo[2,3-b]pyridine-5-carbonitrile] | 20 to 30 | 4.3 | > 100 |
| N#CCC1(n2cc(-c3c(C#N)cnc4[nH]ccc34)cn2)CN(C2CCN(C(=O)c3cc(Br)ccc3Br)CC2)C1 [Example 335, 4-(1-{3-(cyanomethyl)-1-[1-(2,5-dibromobenzoyl)piperidin-4-yl]azetidin-3-yl}-1H-pyrazol-4-yl)-1H-pyrrolo[2,3-b]pyridine-5-carbonitrile] | ≤ 5 | 2.4 | ≤ 10 |
| N#CCC1(n2cc(-c3c(C#N)cnc4[nH]ccc34)cn2)CN(C2CCN(C(=O)c3cc(Br)cc(Br)c3)CC2)C1 [Example 336, 4-(1-{3-(cyanomethyl)-1-[1-(3,5-dibromobenzoyl)piperidin-4-yl]azetidin-3-yl}-1H-pyrazol-4-yl)-1H-pyrrolo[2,3-b]pyridine-5-carbonitrile] | ≤ 5 | 2.9 | ≤ 10 |
| N#CCC1(n2cc(-c3c(C#N)cnc4[nH]ccc34)cn2)CN(C2CCN(C(=O)c3cc(C#N)ccc3C#N)CC2)C1 [Example 337, 2-[(4-{3-(cyanomethyl)-3-[4-(5-cyano-1H-pyrrolo[2,3-b]pyridin-4-yl)-1H-pyrazol-1-yl]azetidin-1-yl}piperidin-1-yl)carbonyl]terephthalonitrile] | 5 to 20 | 6.0 | 10 to 50 |
| N#CCC1(n2cc(-c3c(C#N)cnc4[nH]ccc34)cn2)CN(C2CCN(C(=O)c3cc(C#N)cc(C#N)c3)CC2)C1 [Example 338, 5-[(4-{3-(cyanomethyl)-3-[4-(5-cyano-1H-pyrrolo[2,3-b]pyridin-4-yl)-1H-pyrazol-1-yl]azetidin-1-yl}piperidin-1-yl)carbonyl]isophthalonitrile] | 5 to 20 | 7.4 | 50 to 100 |
| N#CCC1(n2cc(-c3c(C#N)cnc4[nH]ccc34)cn2)CN(C2CCN(C(=O)c3c(F)cc(C#N)cc3F)CC2)C1 [Example 340, 4-{1-[1-[1-(4-cyano-2,6-difluorobenzoyl)piperidin-4-yl]-3-(cyanomethyl)azetidin-3-yl]-1H-pyrazol-4-yl}-1H-pyrrolo[2,3-b]pyridine-5-carbonitrile] | 20 to 30 | 1.4 | 10 to 50 |
| N#CCC1(n2cc(-c3c(C#N)cnc4[nH]ccc34)cn2)CN(C2CCN(C(=O)c3cc(C(F)(F)F)ncc3Cl)CC2)C1 [Example 341, 4-{1-[1-{1-[5-chloro-2-(trifluoromethyl)isonicotinoyl]piperidin-4-yl}-3-(cyanomethyl)azetidin-3-yl]-1H-pyrazol-4-yl}-1H-pyrrolo[2,3-b]pyridine-5-carbonitrile] | 5 to 20 | 3.2 | 50 to 100 |
| N#CCC1(n2cc(-c3ncnc4[nH]ccc34)cn2)CN(C2CCN(C(=O)c3cc(C(F)(F)F)ncc3Cl)CC2)C1 [Example 342, {1-{1-[5-Chloro-2-(trifluoromethyl)isonicotinoyl]piperidin-4-yl}-3-[4-(7H-pyrrolo[2,3-d]pyrimidin-4-yl)-1H-pyrazol-1-yl]azetidin-3-yl}acetonitrile] | ≤ 5 | 5.7 | 10 to 50 |
| N#CCC1(n2cc(-c3ncnc4[nH]ccc34)cn2)CN(C2CCN(C(=O)c3cc(C(F)(F)F)ncc3F)CC2)C1 [Example 343, {1-{1-[5-Fluoro-2-(trifluoromethyl)isonicotinoyl]piperidin-4-yl}-3-[4-(7H-pyrrolo[2,3-d]pyrimidin-4-yl)-1H-pyrazol-1-yl]azetidin-3-yl}acetonitrile] | 5 to 20 | 5.5 | 50 to 100 |
| N#CCC1(n2cc(-c3ncnc4[nH]ccc34)cn2)CN(C2CCN(C(=O)c3nc(C(F)(F)F)cs3)CC2)C1 [Example 344, [3-[4-(7H-Pyrrolo[2,3-d]pyrimidin-4-yl)-1H-pyrazol-1-yl]-1-(1-{[4-(trifluoromethyl)-1,3-thiazol-2-yl]carbonyl}piperidin-4-yl)azetidin-3-yl]acetonitrile] | ≤ 5 | 18.9 | 50 to 100 |
| N#CCC1(n2ccc(-c3ncnc4[nH]ccc34)c2)CN(C2CCN(C(=O)c3ccnc(C(F)(F)F)n3)CC2)C1 [Example 345, [3-[3-(7H-Pyrrolo[2,3-d]pyrimidin-4-yl)-1H-pyrrol-1-yl]-1-(1-{[2-(trifluoromethyl)pyrimidin-4-yl]carbonyl}piperidin-4-yl)azetidin-3-yl]acetonitrile] | 5 to 20 | 11.9 | 50 to 100 |
| N#CCC1(n2ccc(-c3ncnc4[nH]ccc34)c2)CN(C2CCN(C(=O)c3nc(C(F)(F)F)cs3)CC2)C1 [Example 346, [3-[3-(7H-Pyrrolo[2,3-d]pyrimidin-4-yl)-1H-pyrrol-1-yl]-1-(1-{[4-(trifluoromethyl)-1,3-thiazol-2-yl]carbonyl}piperidin-4-yl)azetidin-3-yl]acetonitrile] | ≤ 5 | 5.9 | 10 to 50 |
